Consider one molecule from US12447151B2, “Alkyne derivative, preparation method for same, and uses thereof” (ZHEJIANG HISUN PHARMACEUTICAL CO., LTD., priority 2019, dated 2025).

The target in one data set is recombinant human PI3Kβ (Homo sapiens (Human), UniProt P42338). The experiment in a line: Inhibitory activity on PI3K kinase (ADP-Glo Kinase Assay).
Data set [1] in a line: Oral pharmacokinetics in SD rats. The class given is in vivo. As to conditions: male, rat, plasma, Oral (5 mg/kg). As for the experimental part:
Using SD rats as test animals, the rats were intragastrically administrated with the compound of the present invention. LC/MS/MS method was used to determine the drug concentration in the plasma at different times to study the pharmacokinetic characteristics of the compound of the present invention in rats.
An appropriate amount of the compound to be tested was weighed, and 0.5% sodium carboxymethylcellulose (containing 0.05% Tween80) was added. The mixture was vortexed, and sonicated so that the solid was ultrasonically dispersed uniformly to obtain a suspension. 100 μL×2 of the filtered preparation were aspirated, and placed in 1.5-mL EP tubes, stored at […]. The concentration of the preparation was 0.5 mg/mL.
Nine healthy adult male SD rats were fasted overnight and then intragastrically administered (dosage of administration was 5 mg/kg), and fed 4 hours after administration.
About 0.2 mL of blood was collected from the jugular vein at 0.083 hours, 0.25 hours, 0.5 hours, 1 hour, 2 hours, 4 hours, 8 hours, 12 hours, and 24 hours after administration, and heparin sodium was used for anticoagulation. The collected blood samples were placed on ice and centrifuged to separate the plasma (centrifugation conditions: 1500 g, 10 minutes). The collected plasma was stored at −40 to −20° C. before analysis. The LC-MS/MS method was used to determine the content of the test compound in the plasma of SD rats after intragastric administration of different compounds.

Data set [2] in a line: Metabolic stability in liver microsomes. It counts as in vitro ADME. The following applies: human liver microsomes 0.5 mg/mL, 1 μM compound, NADPH 1 mM; read-out: half-life period/(T1/2, min). As to the method: The test compound was co-incubated with human liver microsomes, and coenzyme NADPH was added to initiate the reaction. At 0, 5, 15, 30 and 60 minutes, 20 μL of incubation solution was taken out and transferred to 200 μL of acetonitrile containing internal standard to stop the reaction. After protein precipitation, centrifugation was performed at 3,700 rpm for 10 minutes and the supernatant was taken. The supernatant was diluted 1:1 with water and analyzed by LC-MS/MS method. According to the elimination half-life of the test compound in the incubation system, the in vitro intrinsic clearance rate was calculated. Midazolam was used as the internal reference compound and incubated for two aliquots in parallel.
The ratio of peak area of the analyte/internal standard (Aanalyte/AIS) was obtained by the instrument. The remaining percentage (% Control) was calculated from the ratio of Aanalyte/AIS in the non-zero time point sample to the zero time point sample. Ln (% Control) versus incubation time was plotted and a linear fit was performed. The clearance constant (k, min^−1), the clearance half-life (T1/2, min) and the in vitro intrinsic clearance rate (CLint, mL·min^−1·mg^−1 proteins) of the test compound were calculated by the following equations.
Cprotein(mg·mL^−1) refers to the concentration of microsomal protein in the incubation system.

Data set [3] can be described thus: Oral pharmacokinetics in ICR mice. It counts as in vivo. As to conditions: male, mouse, plasma, Oral (5 mg/kg). As to the method:
Using ICR mice as the test animals, the mice were intragastrically administrated with the compound of the present invention. LC/MS/MS method was used to determine the drug concentration in the plasma at different times to study the pharmacokinetic characteristics of the compound of the present invention in mice.
An appropriate amount of the compound to be tested was weighed, and 0.5% sodium carboxymethylcellulose (containing 0.05% Tween80) was added. The mixture was vortexed, and sonicated so that the solid was ultrasonically dispersed uniformly to obtain a suspension; 100 μL×2 of the preparation were aspirated, and placed in 1.5-mL EP tubes, stored at 2 to 8° C. The concentration of the preparation was 0.5 mg/mL.
Twenty-seven healthy adult ICR male mice were fasted overnight and then intragastrically administered (dosage of administration was 5 mg/kg), and fed 4 hours after administration.
At 0.083 hours, 0.25 hours, 0.5 hours, 1 hour, 2 hours, 4 hours, 8 hours, 12 hours, and 24 hours after administration, 80 μL of blood was collected from the orbital vein. About 0.08 mL of blood was collected, and placed in EDTA-K2 anticoagulation tube. […] The collected plasma was stored at −40 to −20° C. before analysis. The […] method was used to determine the content of the test compound in the plasma of ICR mice after intragastric administration of different compounds.

The target in a further data set is recombinant human PI3Kδ (Homo sapiens (Human), UniProt O00329). Kind of data set: Inhibitory activity on PI3K kinase (ADP-Glo Kinase Assay). For orientation: In ADP-Glo the light output rises with the ADP produced.
Setting [4] is: read-out: Area under the curve AUC0-∞.
The mark [5] stands for this setting: read-out: Plasma concentration Cmax.

Sequence of recombinant human PI3Kβ (P42338 whole entry): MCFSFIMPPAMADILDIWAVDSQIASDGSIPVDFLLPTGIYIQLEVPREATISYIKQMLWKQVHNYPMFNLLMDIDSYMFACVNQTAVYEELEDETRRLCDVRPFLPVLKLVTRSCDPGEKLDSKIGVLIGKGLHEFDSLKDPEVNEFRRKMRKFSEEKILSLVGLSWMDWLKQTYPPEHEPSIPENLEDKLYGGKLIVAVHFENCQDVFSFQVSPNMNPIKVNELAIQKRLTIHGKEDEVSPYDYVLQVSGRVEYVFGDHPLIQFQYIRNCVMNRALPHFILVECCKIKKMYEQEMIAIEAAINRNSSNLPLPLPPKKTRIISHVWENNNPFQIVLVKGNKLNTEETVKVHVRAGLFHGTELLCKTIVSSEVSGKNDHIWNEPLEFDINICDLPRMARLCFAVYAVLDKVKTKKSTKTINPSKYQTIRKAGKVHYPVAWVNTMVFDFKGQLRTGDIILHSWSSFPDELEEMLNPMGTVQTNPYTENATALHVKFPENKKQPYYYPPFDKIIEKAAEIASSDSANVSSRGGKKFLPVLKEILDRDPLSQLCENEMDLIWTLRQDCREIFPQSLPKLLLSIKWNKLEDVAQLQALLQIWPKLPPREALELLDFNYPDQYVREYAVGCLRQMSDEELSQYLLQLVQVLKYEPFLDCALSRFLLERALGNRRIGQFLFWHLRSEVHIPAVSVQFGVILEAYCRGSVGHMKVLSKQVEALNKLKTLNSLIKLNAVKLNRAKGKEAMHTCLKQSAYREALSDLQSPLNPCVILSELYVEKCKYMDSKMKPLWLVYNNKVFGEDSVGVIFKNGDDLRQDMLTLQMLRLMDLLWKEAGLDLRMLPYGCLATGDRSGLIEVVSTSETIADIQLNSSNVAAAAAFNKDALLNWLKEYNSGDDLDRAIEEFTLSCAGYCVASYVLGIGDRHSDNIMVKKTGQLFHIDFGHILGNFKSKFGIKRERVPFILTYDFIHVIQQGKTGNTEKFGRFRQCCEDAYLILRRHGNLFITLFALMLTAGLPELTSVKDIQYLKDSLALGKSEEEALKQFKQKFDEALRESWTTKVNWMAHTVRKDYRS
Sequence of recombinant human PI3Kβ (P27986 whole entry partner): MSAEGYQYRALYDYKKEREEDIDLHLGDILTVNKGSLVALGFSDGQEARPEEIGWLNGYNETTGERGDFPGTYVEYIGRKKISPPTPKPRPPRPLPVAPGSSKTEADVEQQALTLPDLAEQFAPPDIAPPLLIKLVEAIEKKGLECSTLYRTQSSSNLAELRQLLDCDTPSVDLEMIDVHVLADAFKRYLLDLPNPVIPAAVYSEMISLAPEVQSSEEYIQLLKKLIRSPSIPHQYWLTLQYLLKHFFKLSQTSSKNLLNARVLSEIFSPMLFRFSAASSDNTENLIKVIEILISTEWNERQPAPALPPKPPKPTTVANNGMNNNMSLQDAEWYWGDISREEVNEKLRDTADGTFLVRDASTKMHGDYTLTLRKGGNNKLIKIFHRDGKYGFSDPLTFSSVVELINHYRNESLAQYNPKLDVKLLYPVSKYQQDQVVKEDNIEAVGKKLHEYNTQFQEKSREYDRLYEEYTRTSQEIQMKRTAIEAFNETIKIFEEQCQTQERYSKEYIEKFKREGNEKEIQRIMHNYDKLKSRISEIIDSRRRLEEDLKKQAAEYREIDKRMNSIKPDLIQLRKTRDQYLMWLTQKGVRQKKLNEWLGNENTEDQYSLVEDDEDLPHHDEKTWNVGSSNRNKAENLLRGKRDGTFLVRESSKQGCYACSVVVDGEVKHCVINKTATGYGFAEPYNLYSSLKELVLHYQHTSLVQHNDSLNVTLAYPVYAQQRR
Sequence of recombinant human PI3Kδ (O00329 whole entry): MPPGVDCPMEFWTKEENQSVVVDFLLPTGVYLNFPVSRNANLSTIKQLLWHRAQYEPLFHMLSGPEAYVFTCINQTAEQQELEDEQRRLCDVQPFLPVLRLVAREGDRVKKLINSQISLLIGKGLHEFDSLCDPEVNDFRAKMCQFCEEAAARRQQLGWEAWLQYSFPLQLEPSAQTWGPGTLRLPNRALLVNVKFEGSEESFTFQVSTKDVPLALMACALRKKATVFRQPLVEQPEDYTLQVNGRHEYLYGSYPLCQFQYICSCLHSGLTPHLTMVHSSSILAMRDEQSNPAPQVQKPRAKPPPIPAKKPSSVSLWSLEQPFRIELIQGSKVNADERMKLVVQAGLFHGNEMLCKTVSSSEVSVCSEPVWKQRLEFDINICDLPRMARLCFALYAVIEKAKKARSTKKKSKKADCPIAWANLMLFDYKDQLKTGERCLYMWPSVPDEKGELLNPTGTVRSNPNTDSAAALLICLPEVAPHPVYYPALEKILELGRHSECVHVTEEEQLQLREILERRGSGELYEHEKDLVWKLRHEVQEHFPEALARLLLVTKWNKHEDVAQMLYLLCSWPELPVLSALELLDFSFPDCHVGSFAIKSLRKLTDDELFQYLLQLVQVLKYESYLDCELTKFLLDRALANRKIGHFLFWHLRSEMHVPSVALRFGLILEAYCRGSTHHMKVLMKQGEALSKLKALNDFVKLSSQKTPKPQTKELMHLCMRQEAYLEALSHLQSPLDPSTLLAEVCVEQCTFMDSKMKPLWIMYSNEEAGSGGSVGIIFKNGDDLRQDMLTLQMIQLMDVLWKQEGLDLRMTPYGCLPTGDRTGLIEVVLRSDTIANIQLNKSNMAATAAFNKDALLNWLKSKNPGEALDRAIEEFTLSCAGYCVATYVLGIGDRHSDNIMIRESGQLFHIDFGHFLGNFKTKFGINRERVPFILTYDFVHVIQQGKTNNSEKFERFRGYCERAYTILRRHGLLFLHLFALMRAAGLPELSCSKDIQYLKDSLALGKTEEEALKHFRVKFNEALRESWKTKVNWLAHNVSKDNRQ
Sequence of recombinant human PI3Kδ (P27986 whole entry partner): as the sequence (P27986 whole entry partner) above
Source text for recombinant human PI3Kβ: (§1) The following method is used to determine the degree of inhibition of recombinant human PI3Kα, PI3Kβ, PI3Kγ and PI3Kδ kinase activity by the compounds of the present invention under in vitro conditions. Promega's ADP-Glo Kinase Assay Kit (Cat. No. V9102) was used in this method. The above kit was a luminescence kinase detection kit, which was used to detect the ADP content produced by the kinase reaction. The ADP content was positively correlated with the kinase activity. By measuring the ADP content, the inhibition of the compound on the activity of PI3Kα, PI3Kβ, PI3Kγ and PI3Kδ kinases was reflected. […] Recombinant human PI3Kα, PI3Kγ, and PI3Kδ were purchased from Invitrogen, and PI3Kβ was purchased from Promega (category numbers were PI3Kα: PV4788; PI3Kβ: V1751; PI3Kγ: PV4786 and PI3Kδ: PV6451 separately).
Source text for recombinant human PI3Kδ: as §1

The IC50 is the concentration that gives 50% inhibition. For orientation: bioavailability means dose-corrected exposure relative to a reference, in per cent. Regarding `C[C@H](NC(=O)c1c(N)nn2cccnc12)c1nc2cccc(C#Cc3cnn(C4CC4)c3)c2c(=O)n1-c1ccccc1` [Example 2, (S)-2-amino-N-(1-(5-((1-cyclopropyl-1H-pyrazol-4-yl)ethynyl)-4-oxo-3-phenyl-3,4-dihydroquinazolin-2-yl)ethyl)pyrazolo[1,5-a]pyrimidine-3-carboxamide], the IC50 at recombinant human PI3Kβ is 466 nM; on recombinant human PI3Kδ, 191 nM. Also, the AUC(0-inf) in data set [1] (setting [4]) was found to be 11000 ng·h/mL; in data set [3] (setting [4]) it was 15100 ng·h/mL. Besides, the bioavailability in data set [1] (read-out: Bioavailability F) amounted to 66%; in data set [3] (read-out: Bioavailability F), 60%. Further, the half-life in data set [1] (read-out: Half-life period T1/2 (converted)) was 4.1 h; in data set [3] (read-out: Half-life period T½ (converted)), 3.4 h. The results for the Cmax in data set [1] (setting [5]) and in data set [3] (setting [5]) were 1160 ng/mL and 1730 ng/mL, respectively. Also, in data set [2], the half-life at 1 μM was determined as 233 min.
